US9169254B2, “Spiroimidazolone derivative” (Chugai Seiyaku Kabushiki Kaisha, priority 2009, dated 2015)

molecular target: T1, human PTH1 receptor (Homo sapiens, UniProt Q03431); experiment: In vitro cAMP signal activity in HKRK-B7 cells (LLC-PK1 cells overexpressing the human PTH1 receptor); format: cell-based; conditions: HKRK-B7 cells; compound at 1×10^−3 M; cAMP produced as percentage of that produced by hPTH(1-34) at 100 nM
T1 sequence (Q03431 27-593): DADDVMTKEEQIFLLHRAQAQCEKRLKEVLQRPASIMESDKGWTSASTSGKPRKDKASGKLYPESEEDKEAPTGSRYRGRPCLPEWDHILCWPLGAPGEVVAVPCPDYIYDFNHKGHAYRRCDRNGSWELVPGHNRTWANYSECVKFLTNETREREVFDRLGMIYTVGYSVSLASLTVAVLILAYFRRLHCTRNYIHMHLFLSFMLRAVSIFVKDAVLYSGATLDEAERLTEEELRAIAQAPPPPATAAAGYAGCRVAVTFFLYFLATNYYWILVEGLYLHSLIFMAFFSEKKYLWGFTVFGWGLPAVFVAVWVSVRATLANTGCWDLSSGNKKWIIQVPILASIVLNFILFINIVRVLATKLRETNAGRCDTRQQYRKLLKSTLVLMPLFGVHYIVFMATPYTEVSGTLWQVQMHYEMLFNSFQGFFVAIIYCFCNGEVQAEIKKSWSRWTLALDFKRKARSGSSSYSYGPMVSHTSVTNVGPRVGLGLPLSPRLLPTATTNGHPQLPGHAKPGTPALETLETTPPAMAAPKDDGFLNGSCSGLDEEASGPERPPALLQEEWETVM

| Compound | cAMP production activity (%) |
| --- | --- |
| Cc1cc(C(=O)N2CC[C@H](N(C)C)C2)ccc1CCS(=O)(=O)N1CCC2(CC1)N=C(c1cccc(C(F)(F)F)c1)NC2=O [Compound 372, 8-{2-[4-((S)-3-dimethylamino-pyrrolidine-1-carbonyl)-2-methyl-phenyl]-ethanesulfonyl}-2-(3-trifluoromethyl-phenyl)-1,3,8-triaza-spiro[4.5]dec-1-en-4-one] | 51 |
| Cc1cc(C(=O)N2CCN(C(C)(C)C)CC2)ccc1CCS(=O)(=O)N1CCC2(CC1)N=C(c1cccc(C(F)(F)F)c1)NC2=O [Compound 373, 8-{2-[4-(4-tert-butyl-piperazine-1-carbonyl)-2-methyl-phenyl]-ethanesulfonyl}-2-(3-trifluoromethyl-phenyl)-1,3,8-triaza-spiro[4.5]dec-1-en-4-one] | 70 |
| Cc1cc(C(=O)N2CCN(CCCN(C)C)CC2)ccc1CCS(=O)(=O)N1CCC2(CC1)N=C(c1cccc(C(F)(F)F)c1)NC2=O [Compound 374, 8-(2-{4-[4-(3-dimethylamino-propyl)-piperazine-1-carbonyl]-2-methyl-phenyl}-ethanesulfonyl)-2-(3-trifluoromethyl-phenyl)-1,3,8-triaza-spiro[4.5]dec-1-en-4-one] | 79 |
| Cc1cc(C(=O)N2CCN(c3ccc(F)cc3)CC2)ccc1CCS(=O)(=O)N1CCC2(CC1)N=C(c1cccc(C(F)(F)F)c1)NC2=O [Compound 375, 8-(2-{4-[4-(4-fluoro-phenyl)-piperazine-1-carbonyl]-2-methyl-phenyl}-ethanesulfonyl)-2-(3-trifluoromethyl-phenyl)-1,3,8-triaza-spiro[4.5]dec-1-en-4-one] | 57 |
| Cc1cc(C(=O)N2CCN(C(C)C)CC2)ccc1CCS(=O)(=O)N1CCC2(CC1)N=C(c1cccc(C(F)(F)F)c1)NC2=O [Compound 376, 8-{2-[4-(4-isopropyl-piperazine-1-carbonyl)-2-methyl-phenyl]-ethanesulfonyl}-2-(3-trifluoromethyl-phenyl)-1,3,8-triaza-spiro[4.5]dec-1-en-4-one] | 74 |
| Cc1cc(C(=O)N2CC(O)C2)ccc1CCS(=O)(=O)N1CCC2(CC1)N=C(c1cccc(C(F)(F)F)c1)NC2=O [Compound 377, 8-{2-[4-(3-hydroxy-azetidine-1-carbonyl)-2-methyl-phenyl]-ethanesulfonyl}-2-(3-trifluoromethyl-phenyl)-1,3,8-triaza-spiro[4.5]dec-1-en-4-one] | 64 |
| Cc1cc(C(=O)N2CCC(F)C2)ccc1CCS(=O)(=O)N1CCC2(CC1)N=C(c1cccc(C(F)(F)F)c1)NC2=O (stereo not drawn) [Compound 378, 8-{2-[4-(3-fluoro-pyrrolidine-1-carbonyl)-2-methyl-phenyl]-ethanesulfonyl}-2-(3-trifluoromethyl-phenyl)-1,3,8-triaza-spiro[4.5]dec-1-en-4-one] | 60 |
| Cc1cc(C(=O)N2CC(F)C2)ccc1CCS(=O)(=O)N1CCC2(CC1)N=C(c1cccc(C(F)(F)F)c1)NC2=O [Compound 379, 8-{2-[4-(3-fluoro-azetidine-1-carbonyl)-2-methyl-phenyl]-ethanesulfonyl}-2-(3-trifluoromethyl-phenyl)-1,3,8-triaza-spiro[4.5]dec-1-en-4-one] | 59 |
| Cc1cc(C(=O)N2CCCCC2)ccc1CCS(=O)(=O)N1CCC2(CC1)N=C(c1cccc(C(F)(F)F)c1)NC2=O [Compound 380, 8-{2-[2-methyl-4-(piperidine-1-carbonyl)-phenyl]-ethanesulfonyl}-2-(3-trifluoromethyl-phenyl)-1,3,8-triaza-spiro[4.5]dec-1-en-4-one] | 75 |
| Cc1cc(C(=O)N2CCC2)ccc1CCS(=O)(=O)N1CCC2(CC1)N=C(c1cccc(C(F)(F)F)c1)NC2=O [Compound 381, 8-{2-[4-(azetidine-1-carbonyl)-2-methyl-phenyl]-ethanesulfonyl}-2-(3-trifluoromethyl-phenyl)-1,3,8-triaza-spiro[4.5]dec-1-en-4-one] | 72 |
| Cc1cc(C(=O)N2CCN(C(=O)N(C)C)CC2)ccc1CCS(=O)(=O)N1CCC2(CC1)N=C(c1cccc(C(F)(F)F)c1)NC2=O [Compound 382, 4-(3-methyl-4-{2-[4-oxo-2-(3-trifluoromethyl-phenyl)-1,3,8-triaza-spiro[4.5]dec-1-ene-8-sulfonyl]-ethyl}-benzoyl)-piperazine-1-carboxylic acid dimethylamide] | 36 |
| Cc1cc(C(=O)N(C)C)cc(C)c1/C=C/S(=O)(=O)N1CCC2(CC1)N=C(c1cccc(C(F)(F)F)c1)NC2=O [Compound 383, 3,5,N,N-Tetramethyl-4-{(E)-2-[4-oxo-2-(3-trifluoromethyl-phenyl)-1,3,8-triaza-spiro[4.5]dec-1-ene-8-sulfonyl]-vinyl}-benzamide] | 72 |
| Cc1cc(C(=O)N2CCC(O)CC2)cc(C)c1/C=C/S(=O)(=O)N1CCC2(CC1)N=C(c1cccc(C(F)(F)F)c1)NC2=O [Compound 384, 8-{(E)-2-[4-(4-hydroxy-piperidine-1-carbonyl)-2,6-dimethyl-phenyl]-ethenesulfonyl}-2-(3-trifluoromethyl-phenyl)-1,3,8-triaza-spiro[4.5]dec-1-en-4-one] | 61 |
| Cc1cc(C(=O)N2CC(O)C2)cc(C)c1/C=C/S(=O)(=O)N1CCC2(CC1)N=C(c1cccc(C(F)(F)F)c1)NC2=O [Compound 385, 8-{(E)-2-[4-(3-hydroxy-azetidine-1-carbonyl)-2,6-dimethyl-phenyl]-ethenesulfonyl}-2-(3-trifluoromethyl-phenyl)-1,3,8-triaza-spiro[4.5]dec-1-en-4-one] | 94 |
| Cc1cc(C(=O)N2CCC(O)(CO)CC2)cc(C)c1/C=C/S(=O)(=O)N1CCC2(CC1)N=C(c1cccc(C(F)(F)F)c1)NC2=O [Compound 386, 8-{(E)-2-[4-(4-hydroxy-4-hydroxymethyl-piperidine-1-carbonyl)-2,6-dimethyl-phenyl]-ethenesulfonyl}-2-(3-trifluoromethyl-phenyl)-1,3,8-triaza-spiro[4.5]dec-1-en-4-one] | 86 |
| Cc1cc(C(=O)N2C[C@@H](O)[C@H](N(C)C)C2)cc(C)c1/C=C/S(=O)(=O)N1CCC2(CC1)N=C(c1cccc(C(F)(F)F)c1)NC2=O [Compound 387, 8-{(E)-2-[4-((3R,4R)-3-dimethylamino-4-hydroxy-pyrrolidine-1-carbonyl)-2,6-dimethyl-phenyl]-ethenesulfonyl}-2-(3-trifluoromethyl-phenyl)-1,3,8-triaza-spiro[4.5]dec-1-en-4-one] | 97 |
| Cc1cc(C(=O)N2CCCC2)cc(C)c1/C=C/S(=O)(=O)N1CCC2(CC1)N=C(c1cccc(C(F)(F)F)c1)NC2=O [Compound 388, 8-{(E)-2-[2,6-dimethyl-4-(pyrrolidine-1-carbonyl)-phenyl]-ethenesulfonyl}-2-(3-trifluoromethyl-phenyl)-1,3,8-triaza-spiro[4.5]dec-1-en-4-one] | 84 |
| Cc1cc(C(=O)N(C)CCCO)cc(C)c1/C=C/S(=O)(=O)N1CCC2(CC1)N=C(c1cccc(C(F)(F)F)c1)NC2=O [Compound 389, N-(3-hydroxy-propyl)-3,5,N-trimethyl-4-{(E)-2-[4-oxo-2-(3-trifluoromethyl-phenyl)-1,3,8-triaza-spiro[4.5]dec-1-ene-8-sulfonyl]-vinyl}-benzamide] | 75 |
